The text below walks through data of paper PMC2941766 (Molecular pharmaceutics, 2010).

Type in all cases: in vitro ADME
One series deals with T1, UGT1A8 (Homo sapiens, UniProt Q9HAW9).
T1 sequence (Q9HAW9 26-530): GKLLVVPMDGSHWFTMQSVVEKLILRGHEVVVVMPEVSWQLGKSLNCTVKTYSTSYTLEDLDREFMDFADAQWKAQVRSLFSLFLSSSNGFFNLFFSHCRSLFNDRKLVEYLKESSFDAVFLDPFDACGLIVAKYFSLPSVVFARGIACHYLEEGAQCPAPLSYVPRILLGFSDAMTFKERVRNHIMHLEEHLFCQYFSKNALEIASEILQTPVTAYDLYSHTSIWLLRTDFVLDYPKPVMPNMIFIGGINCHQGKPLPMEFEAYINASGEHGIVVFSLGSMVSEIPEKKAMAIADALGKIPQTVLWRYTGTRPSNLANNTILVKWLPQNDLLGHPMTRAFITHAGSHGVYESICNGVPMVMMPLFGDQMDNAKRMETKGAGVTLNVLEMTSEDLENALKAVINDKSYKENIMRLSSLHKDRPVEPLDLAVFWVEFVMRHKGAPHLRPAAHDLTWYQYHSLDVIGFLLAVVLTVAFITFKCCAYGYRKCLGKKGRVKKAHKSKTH
As to the kind of experiment: Glucuronidation by expressed human UGT1A8. To be noted: UGT1A8, 2.5μM substrate, 37°C.

The nature of series [1]: Glucuronidation by pooled human liver microsomes. Particulars: human liver microsomes, 2.5μM substrate.
In the next series the target is T2, UGT1A1 (Homo sapiens, UniProt P22309).
T2 sequence (P22309 26-533): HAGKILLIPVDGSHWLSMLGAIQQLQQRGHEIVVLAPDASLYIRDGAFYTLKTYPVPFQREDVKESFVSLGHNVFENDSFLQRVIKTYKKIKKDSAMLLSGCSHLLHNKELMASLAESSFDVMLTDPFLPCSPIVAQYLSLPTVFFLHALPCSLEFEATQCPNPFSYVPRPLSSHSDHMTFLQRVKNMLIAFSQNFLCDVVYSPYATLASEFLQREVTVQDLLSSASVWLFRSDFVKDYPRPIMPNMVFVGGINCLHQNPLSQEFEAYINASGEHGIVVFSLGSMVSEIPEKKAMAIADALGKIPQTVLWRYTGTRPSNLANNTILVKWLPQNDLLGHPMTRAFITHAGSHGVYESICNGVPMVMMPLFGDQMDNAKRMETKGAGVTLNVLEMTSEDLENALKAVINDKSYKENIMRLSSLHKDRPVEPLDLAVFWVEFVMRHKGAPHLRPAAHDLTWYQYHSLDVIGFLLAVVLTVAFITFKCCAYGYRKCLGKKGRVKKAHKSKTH
As to the kind of experiment: Glucuronidation by expressed human UGT1A1. To be noted: 37°C.

The target of a further series is T3, UGT1A10 (Homo sapiens, UniProt Q9HAW8).
T3 sequence (Q9HAW8 26-530): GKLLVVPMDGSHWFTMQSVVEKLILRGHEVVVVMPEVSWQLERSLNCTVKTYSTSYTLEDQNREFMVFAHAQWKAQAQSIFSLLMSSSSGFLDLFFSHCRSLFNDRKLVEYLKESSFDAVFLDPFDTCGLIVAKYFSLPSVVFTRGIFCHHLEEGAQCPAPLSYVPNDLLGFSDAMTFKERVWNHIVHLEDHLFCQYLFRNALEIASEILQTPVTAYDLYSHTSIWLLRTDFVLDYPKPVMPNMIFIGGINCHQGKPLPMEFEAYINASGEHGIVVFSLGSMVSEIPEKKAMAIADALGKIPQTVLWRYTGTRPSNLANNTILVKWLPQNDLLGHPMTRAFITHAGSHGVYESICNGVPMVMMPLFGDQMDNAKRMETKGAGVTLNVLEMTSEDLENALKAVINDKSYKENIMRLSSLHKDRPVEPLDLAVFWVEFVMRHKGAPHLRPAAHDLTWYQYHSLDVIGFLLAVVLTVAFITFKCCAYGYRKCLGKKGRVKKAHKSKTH
The series can be described thus: Glucuronidation by expressed human UGT1A10. Particulars: UGT1A10, 10 μM substrate, 37°C.

In the next series the target is T4, UGT1A9 (Homo sapiens, UniProt O60656).
T4 sequence (O60656 26-530): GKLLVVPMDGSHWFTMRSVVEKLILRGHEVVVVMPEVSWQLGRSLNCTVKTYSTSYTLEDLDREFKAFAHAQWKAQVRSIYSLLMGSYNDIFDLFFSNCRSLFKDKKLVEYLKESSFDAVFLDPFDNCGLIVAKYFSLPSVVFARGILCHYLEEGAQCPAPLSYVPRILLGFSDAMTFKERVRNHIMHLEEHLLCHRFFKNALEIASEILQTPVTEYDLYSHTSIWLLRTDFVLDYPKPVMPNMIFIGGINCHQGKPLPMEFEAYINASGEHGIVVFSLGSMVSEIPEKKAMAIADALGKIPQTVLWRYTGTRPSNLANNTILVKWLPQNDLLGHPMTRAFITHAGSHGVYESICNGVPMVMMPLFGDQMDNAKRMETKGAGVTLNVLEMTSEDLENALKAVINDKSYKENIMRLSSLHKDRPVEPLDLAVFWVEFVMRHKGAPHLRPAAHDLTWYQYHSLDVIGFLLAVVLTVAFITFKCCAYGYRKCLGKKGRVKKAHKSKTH
As to the kind of experiment: Glucuronidation by expressed human UGT1A9. Particulars: for glucuronidation rate: UGT1A9, 2.5 μM substrate, 37°C.

The target in a further series is T5, UGT1A7 (Homo sapiens, UniProt Q9HAW7).
T5 sequence (Q9HAW7 26-530): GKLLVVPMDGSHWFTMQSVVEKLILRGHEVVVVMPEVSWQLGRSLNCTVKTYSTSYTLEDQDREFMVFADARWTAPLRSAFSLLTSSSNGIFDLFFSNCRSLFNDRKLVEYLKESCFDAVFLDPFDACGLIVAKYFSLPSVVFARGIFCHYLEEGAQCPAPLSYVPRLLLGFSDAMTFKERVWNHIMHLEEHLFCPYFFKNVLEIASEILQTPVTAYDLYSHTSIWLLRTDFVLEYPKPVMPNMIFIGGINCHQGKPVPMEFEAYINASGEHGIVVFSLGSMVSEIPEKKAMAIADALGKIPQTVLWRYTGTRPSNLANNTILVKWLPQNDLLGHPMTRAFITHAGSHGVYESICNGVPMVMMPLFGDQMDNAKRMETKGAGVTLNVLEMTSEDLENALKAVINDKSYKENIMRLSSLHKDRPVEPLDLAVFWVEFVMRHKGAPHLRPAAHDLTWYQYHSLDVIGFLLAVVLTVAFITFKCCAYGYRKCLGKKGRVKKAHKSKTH
As to the kind of experiment: Glucuronidation by expressed human UGT1A7. Particulars: UGT1A7, 2.5μM substrate, 37°C.

A further series has as its target T6, UGT2B7 (Homo sapiens, UniProt P16662).
T6 sequence (P16662 24-529): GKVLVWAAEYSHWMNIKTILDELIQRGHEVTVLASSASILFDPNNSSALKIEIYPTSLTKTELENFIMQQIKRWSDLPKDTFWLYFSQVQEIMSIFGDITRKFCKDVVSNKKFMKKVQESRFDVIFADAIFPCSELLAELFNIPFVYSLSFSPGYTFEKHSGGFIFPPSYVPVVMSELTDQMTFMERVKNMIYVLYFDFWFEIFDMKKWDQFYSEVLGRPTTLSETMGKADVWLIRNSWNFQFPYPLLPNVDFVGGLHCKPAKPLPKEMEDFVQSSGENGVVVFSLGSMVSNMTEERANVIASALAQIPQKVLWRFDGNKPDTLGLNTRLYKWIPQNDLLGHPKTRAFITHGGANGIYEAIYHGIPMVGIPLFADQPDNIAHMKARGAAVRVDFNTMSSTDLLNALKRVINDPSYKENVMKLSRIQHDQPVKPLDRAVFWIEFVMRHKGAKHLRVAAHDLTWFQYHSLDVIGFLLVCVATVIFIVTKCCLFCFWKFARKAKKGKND
The series can be described thus: Glucuronidation by expressed human UGT2B7. Particulars: for substrate of UGT2B7: UGT2B7, conclusion from fingerprints; for glucuronidation rate: 37°C.

Series [2] in a line: Glucuronidation by pooled human intestinal microsomes. To be noted: human intestinal microsomes.

For `O=c1cc(-c2ccccc2O)oc2ccccc12` [2′-HF, 2′-hydroxyflavone], the glucuronidation rate is 1.18±0.26 nmol per min per mg of protein on UGT1A8; 0.97±0.03 nmol per min per mg of protein in series [1]; 1.28±0.12 nmol per min per mg of protein on UGT1A1 (UGT1A1, 2.5μM substrate); 0.09±0.01 nmol per min per mg of protein on UGT1A10; 0.43±0.06 nmol per min per mg of protein on UGT1A9; 1.13±0.11 nmol per min per mg of protein on UGT1A7.
As to `O=c1c(O)c(-c2ccc(O)cc2)oc2ccccc12` [3,4′-diHF, 3,4′-dihydroxyflavone], the “substrate of UGT2B7” value on UGT2B7 is given as “substrates”.
On the same count and under the same terms, in the case of `O=c1c(O)c(-c2ccccc2)oc2cccc(O)c12` [3,5-diHF, 3,5-dihydroxyflavone] it was “substrates”; in that of `O=c1c(O)c(-c2ccccc2)oc2cc(O)ccc12` [3,7-diHF, 3,7-dihydroxyflavone], “substrates”.
Take `O=c1c(O)c(-c2ccccc2)oc2ccccc12` [3-HF, 3-hydroxyflavone]: the glucuronidation rate in series [2] (2.5 μM substrate) is recorded as 12.35±1.32 nmol per min per mg of protein; on UGT1A8, 2.19 ± 0.27 nmol per min per mg of protein; in series [1], 5.04±0.48 nmol per min per mg of protein; on UGT2B7 (UGT2B7, 2.5μM substrate), 1.39±0.14 nmol per min per mg of protein; at UGT2B7 (UGT2B7, 10μM substrate), 5.35±0.91 nmol per min per mg of protein; at UGT2B7 (UGT2B7, 35μM substrate), 2.19±0.07 nmol per min per mg of protein. Also, the glucuronidation rate at UGT1A1 (UGT1A1, 2.5μM substrate) is recorded as 2.68 ± 0.47 nmol per min per mg of protein; at UGT1A1 (UGT1A1, 10μM substrate) it was 3.80±0.21 nmol per min per mg of protein; on UGT1A1 (UGT1A1, 35μM substrate), 3.85±0.12 nmol per min per mg of protein; on UGT1A10, 1.37±0.19 nmol per min per mg of protein; on UGT1A9 it was 3.03±0.04 nmol per min per mg of protein; at UGT1A7, 8.27±0.15 nmol per min per mg of protein. The “magnitude of the difference between fastest and slowest glucuronidation rate” value in series [2] (2.5 μM, 3-HF vs 5-HF) was determined as 25 folds. Further, the “substrate of UGT2B7” value on UGT2B7 is recorded as “substrates”.
Regarding `O=c1cc(-c2cccc(O)c2)oc2ccccc12` [3′-HF, 3′-hydroxyflavone], the glucuronidation rate at UGT1A8 is 0.27 ±0.02 nmol per min per mg of protein; in series [1], 3.14±0.01 nmol per min per mg of protein; at UGT1A1 (UGT1A1, 2.5μM substrate), 1.59 ±0.26 nmol per min per mg of protein; at UGT1A10, 0.86±0.08 nmol per min per mg of protein; at UGT1A9, 0.48±0.13 nmol per min per mg of protein; at UGT1A7, 1.44±0.20 nmol per min per mg of protein.
Consider `O=c1cc(-c2ccc(O)cc2)oc2ccccc12` [4′-HF, 4′-hydroxyflavone], for which the glucuronidation rate at UGT1A8 is 0.00±0.00 nmol per min per mg of protein; in series [1], 0.80±0.05 nmol per min per mg of protein; at UGT1A1 (UGT1A1, 2.5μM substrate) it was 1.34 ±0.21 nmol per min per mg of protein; at UGT1A10, 0.30±0.05 nmol per min per mg of protein; at UGT1A9, “not detectable”; on UGT1A7, 0 nmol per min per mg of protein. Also, the “glucuronidation (detectable metabolism)” value on UGT1A9 (UGT1A9, 35 μM substrate) is given as “no detectable metabolism”.
Take `O=c1cc(-c2ccccc2)oc2ccc(O)cc12` [6-HF, 6-hydroxyflavone]: the glucuronidation rate is 0.87±0.12 nmol per min per mg of protein on UGT1A8; 0.91±0.04 nmol per min per mg of protein in series [1]; 1.50±0.18 nmol per min per mg of protein at UGT1A1 (UGT1A1, 2.5μM substrate); 0.62±0.07 nmol per min per mg of protein at UGT1A10; 0.10±0.00 nmol per min per mg of protein on UGT1A9; 0 nmol per min per mg of protein at UGT1A7.
Consider `O=c1cc(-c2ccccc2)oc2cc(O)ccc12` [7-HF, 7-hydroxyflavone], for which the glucuronidation rate on UGT1A8 is reported as 0.23±0.03 nmol per min per mg of protein; in series [1] it was 1.39±0.01 nmol per min per mg of protein; at UGT1A1 (UGT1A1, 2.5μM substrate), 1.73 ±0.21 nmol per min per mg of protein; at UGT1A10 it was 0.17±0.03 nmol per min per mg of protein; on UGT1A9 it was 1.30±0.09 nmol per min per mg of protein; at UGT1A7 it was 0 nmol per min per mg of protein.
